Experimental data taken from patent US20230094922A1, “METHODS OF THERAPEUTIC PROGNOSTICATION” (GENETIKAPLUS LTD., priority 2020, published 2023).

Tested on: iPSC-derived cortical neurons
Type: cell-based
[1] = responders vs non-responders after 10 μM Bupropion, NS

SMILES: CC(NC(C)(C)C)C(=O)c1cccc(Cl)c1 (stereo not drawn) [Bupropion, 3-Chloro-N-tert-butyl-β-keto-α-methylphenethylamin]
- number of genes significantly downregulated in responders as compared to non-responders (10 μm Bupropion, p<0.01, Table 4): 174 genes
- number of genes significantly upregulated in responders as compared to non-responders after treatment (10 μm Bupropion, p<0.01, over 60,000 genes probed): 69 genes
- logFC ABLIM2 [1]: −1.305
- logFC ABLIM3 [1]: −2.05
- logFC ACTL6B [1]: −1.577
- logFC ADCY1 [1]: −1.308
- logFC ADCY5 [1]: −1.299
- logFC ADCYAP1R1 [1]: −1.154
- logFC ADD2 [1]: −0.7958
- logFC ADGRB3 [1]: −1.496
- logFC ADRA1B [1]: −2.202
- logFC AGAP2 [1]: −1.343
- logFC AK5 [1]: −1.456
- logFC AKAP6 [1]: −1.215
- logFC AKR1C2 [1]: −1.478
- logFC ALPK3 [1]: −1.224
- logFC AMER3 [1]: −1.722
- logFC ANK1 [1]: −1.875
- logFC ANK2 [1]: −0.959
- logFC ANK3 [1]: −1.262
- logFC ANKH [1]: −0.9269
- logFC ANKRD30BL [1]: −2.897
- logFC ANKRD53 [1]: −1.517
- logFC ANKRD55 [1]: −1.879
- logFC AP3B2 [1]: −1.482
- logFC APBB1 [1]: −0.8199
- logFC APC [1]: −0.916
- logFC APLP1 [1]: −1.076
- logFC ARHGAP20 [1]: −2.01
- logFC ARHGAP26 [1]: −0.7629
- logFC ARHGAP33 [1]: −0.9502
- logFC ARHGAP36 [1]: −2.569
- logFC ARPP21 [1]: −3.247
- logFC ASB8 [1]: −0.7127
- logFC ASIC4 [1]: −1.72
- logFC ATAT1 [1]: −0.8189
- logFC ATCAY [1]: −1.047
- logFC ATP1A3 [1]: −1.336
- logFC ATP2B3 [1]: −1.771
- logFC ATP6V0A1 [1]: −0.6012
- logFC ATP6V0E2 [1]: −1.011
- logFC B3GALNT1 [1]: −2.052
- logFC B3GALT2 [1]: −1.685
- logFC BASP1 [1]: −0.8607
- logFC BINI [1]: −0.8522
- logFC BMERB1 [1]: −0.8373
- logFC BRINP1 [1]: −1.623
- logFC BRSK1 [1]: −0.753
- logFC BSN [1]: −1.599
- logFC C1orf216 [1]: −1.465
- logFC C4orf50 [1]: −1.94
- logFC CA10 [1]: −2.576
- logFC CACNA1B [1]: −1.253
- logFC CACNB1 [1]: −1.261
- logFC CACNB3 [1]: −0.6878
- logFC CACNG2 [1]: −1.666
- logFC CACNG3 [1]: −1.337
- logFC CADM3 [1]: −1.659
- logFC CADM4 [1]: −0.6745
- logFC CALB2 [1]: −1.647
- logFC CAMK1D [1]: −0.9513
- logFC CAMK2B [1]: −1.689
- logFC CAMSAP3 [1]: −0.8932
- logFC CASKIN1 [1]: −0.9781
- logFC CCDC141 [1]: −2.886
- logFC CCDC184 [1]: −1.385
- logFC CDH7 [1]: −1.611
- logFC CDH12 [1]: −2.03
- logFC CDK5R1 [1]: −1.375
- logFC CELF3 [1]: −1.26
- logFC CELF4 [1]: −1.812
- logFC CEP170B [1]: −0.6703
- logFC CEP295NL [1]: −1.321
- logFC CHGA [1]: −1.543
- logFC CHGB [1]: −1.246
- logFC CHRFAM7A [1]: −1.645
- logFC CHRM2 [1]: −2.12
- logFC CHRNA1 [1]: −2.49
- logFC CHRNA4 [1]: −1.718
- logFC CHRNB2 [1]: −1.815
- logFC CHST1 [1]: −1.711
- logFC CLASP2 [1]: −0.7536
- logFC CLCN4 [1]: −0.8168
- logFC CLDN5 [1]: −1.453
- logFC CLIP2 [1]: −0.856
- logFC CLSTN3 [1]: −0.8161
- logFC CMIP [1]: −0.6391
- logFC CNTN1 [1]: −1.722
- logFC CORO2B [1]: −1.199
- logFC CPLX1 [1]: −1.467
- logFC CPLX2 [1]: −1.647
- logFC CRB1 [1]: −1.691
- logFC CREG2 [1]: −1.282
- logFC CRMP1 [1]: −1.121
- logFC CSMD1 [1]: −1.31
- logFC CTNND2 [1]: −1.034
- logFC CXCL11 [1]: −2.544
- logFC CYGB [1]: −1.896
- logFC DAAM1 [1]: −0.6945
- logFC DBNDD1 [1]: −0.8117
- logFC DCLK2 [1]: −1.477
- logFC DES [1]: −2.44
- logFC DIRAS1 [1]: −1.66
- logFC DIRAS2 [1]: −1.952
- logFC DISP2 [1]: −1.757
- logFC DKK3 [1]: −1.052
- logFC DMTN [1]: −1.522
- logFC DOK5 [1]: −1.085
- logFC DPF1 [1]: −1.34
- logFC DPP10 [1]: −1.13
- logFC DPYSL4 [1]: −1.082
- logFC DRD2 [1]: −1.595
- logFC DSCAML1 [1]: −1.404
- logFC DTX1 [1]: −1.204
- logFC EBF1 [1]: −1.335
- logFC ELAVL4 [1]: −1.326
- logFC ELFN2 [1]: −1.113
- logFC EPB41L1 [1]: −0.9134
- logFC EPHA8 [1]: −1.345
- logFC ERAP2 [1]: −2.32
- logFC ETFB [1]: −1.045
- logFC EVI5L [1]: −0.9714
- logFC EYA1 [1]: −0.8128
- logFC F7 [1]: −1.608
- logFC FAIM2 [1]: −1.923
- logFC FAM131B [1]: −0.8962
- logFC FAM219A [1]: −0.8506
- logFC FAM222A [1]: −1.164
- logFC FAR2 [1]: −1.384
- logFC FAXC [1]: −0.9556
- logFC FBXO41 [1]: −0.97
- logFC FGF14 [1]: −1.149
- logFC FMN2 [1]: −1.148
- logFC FRMD5 [1]: −0.7871
- logFC FRMPD4 [1]: −2.13
- logFC FSTL4 [1]: −1.8
- logFC FSTL5 [1]: −1.624
- logFC GABBR2 [1]: −2.251
- logFC GABRG3 [1]: −1.687
- logFC GABRR1 [1]: −2.904
- logFC GAD2 [1]: −1.46
- logFC GALNT9 [1]: −1.69
- logFC GALNTL6 [1]: −1.861
- logFC GAP43 [1]: −1.304
- logFC GCK [1]: −1.587
- logFC GDPD5 [1]: −1.245
- logFC GFOD1 [1]: −1.12
- logFC GLRA1 [1]: −2.174
- logFC GLRA2 [1]: −1.929
- logFC GLRA3 [1]: −3.119
- logFC GMIP [1]: −0.765
- logFC GNAO1 [1]: −1.181
- logFC GOLGA7B [1]: −1.854
- logFC GPR26 [1]: −2.221
- logFC GPR139 [1]: −1.695
- logFC GPR158 [1]: −1.27
- logFC GPRIN1 [1]: −1.521
- logFC GPSM1 [1]: −0.733
- logFC GRIA4 [1]: −1.263
- logFC GRIK2 [1]: −1.1
- logFC GRIN1 [1]: −1.919
- logFC HECW1 [1]: −1.709
- logFC HERC1 [1]: −0.5953
- logFC HID1 [1]: −0.975
- logFC HK1 [1]: −0.5528
- logFC HRH3 [1]: −1.315
- logFC HTR5A [1]: −2.98
- logFC IFI27 [1]: −1.463
- logFC IFIT5 [1]: −0.8218
- logFC IGLON5 [1]: −0.9869
- logFC IGSF8 [1]: −0.6614
- logFC INA [1]: −1.425
- logFC INSM1 [1]: −1.183
- logFC ISL1 [1]: −2.075
- logFC ISLR2 [1]: −2.565
- logFC JAKMIP1 [1]: −1.737
- logFC KBTBD11 [1]: −1.03
- logFC KCNA2 [1]: −1.235
- logFC KCNC2 [1]: −2.213
- logFC KCNH6 [1]: −1.966
- logFC KCNIP1 [1]: −1.502
- logFC KCNJ3 [1]: −1.979
- logFC KCNJ6 [1]: −1.811
- logFC KCNJ9 [1]: −1.383
- logFC KCNK3 [1]: −2.03
- logFC KCNQ2 [1]: −1.053
- logFC KCNS2 [1]: −2.976
- logFC KIAA0513 [1]: −1.005
- logFC KIAA1755 [1]: −1.809
- logFC KIF3C [1]: −1.295
- logFC KIF5A [1]: −1.285
- logFC KIFAP3 [1]: −0.9071
- logFC KIRREL3 [1]: −1.338
- logFC KLHL1 [1]: −2.102
- logFC LG14 [1]: −0.9845
- logFC LGI2 [1]: −1.253
- logFC LGI3 [1]: −2.434
- logFC LHFPL4 [1]: −1.28
- logFC LMTK3 [1]: −0.9148
- logFC LRATD1 [1]: −1.429
- logFC LRFN2 [1]: −1.645
- logFC LRRC4C [1]: −1.523
- logFC LRRC7 [1]: −1.643
- logFC LRRC55 [1]: −1.342
- logFC LRRTM2 [1]: −1.587
- logFC LSM11 [1]: −0.7282
- logFC LZTS1 [1]: −1.332
- logFC MAP1A [1]: −1.103
- logFC MAPK8IP2 [1]: −1.461
- logFC MAPRE2 [1]: −0.7432
- logFC MAST1 [1]: −1.276
- logFC MFNG [1]: −1.262
- logFC MFSD6 [1]: −1.112
- logFC MKRN3 [1]: −1.448
- logFC MPO [1]: −2.163
- logFC MPP3 [1]: −1.029
- logFC MRAS [1]: −0.5698
- logFC MTMR7 [1]: −1.1
- logFC MTSS1 [1]: −0.9406
- logFC MX1 [1]: −1.291
- logFC MXRA7 [1]: −0.6421
- logFC MYL1 [1]: −4.411
- logFC NACAD [1]: −0.8329
- logFC NAP1L5 [1]: −0.871
- logFC NCAM1 [1]: −1.37
- logFC NCAM2 [1]: −1.147
- logFC NDRG4 [1]: −1.32
- logFC NECAP1 [1]: −0.6044
- logFC NEGR1 [1]: −1.829
- logFC NFASC [1]: −1.15
- logFC NHLH1 [1]: −1.305
- logFC NHLH2 [1]: −2.363
- logFC NKAIN4 [1]: −0.8753
- logFC NMNAT2 [1]: −1.044
- logFC NOVAI [1]: −0.9754
- logFC NPAS3 [1]: −1.402
- logFC NPM2 [1]: −1.674
- logFC NR1I3 [1]: −1.278
- logFC NRSN1 [1]: −1.718
- logFC NRXN1 [1]: −1.372
- logFC NSG1 [1]: −1.704
- logFC NSG2 [1]: −1.942
- logFC NTM [1]: −1.35
- logFC NTNG1 [1]: −1.193
- logFC NWD2 [1]: −2.251
- logFC NXPH4 [1]: −1.744
- logFC NYAP1 [1]: −0.9844
- logFC NYAP2 [1]: −2.578
- logFC OLFM2 [1]: −1.002
- logFC OTUD7A [1]: −1.036
